Calls of active or inactive are those of the source.
Assays:
Cytochrome P450 2C9 = Cytochrome P450 2C9 (Homo sapiens, UniProt P11712)
[1] = NIH-3T3 fibroblast cytotoxicity, dose response, cytotoxicity control, cell-based, fluorescence, Alamar Blue, secondary assay (AID 2327); assay type: functional;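 further: NIH-3T3 mouse fibroblasts cultured with fluconazole at 8 µg/mL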
[2] = fluconazole-exposed Candida albicans growth modulators – fluorescence, retest, confirmation (AID 2467); assay type: functional, cell-based
[3] = Trypanosoma cruzi growth suppression in host cells – NIH3T3 host cells, beta-gal luminescence, confirmation (AID 2044); assay type: functional, cell-based;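 further: intracellular parasites grown in NIH/3T3 mouse fibroblasts as host cells; luminescent beta-galactosidase reporter signal from transgenic T. cruzi replicating inside host cells; inhibitors lower the luminescence signal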
[4] = NIH3T3 cell viability loss – ATP luminescence, mouse fibroblasts, counter-screen, dose response (AID 2010); assay type: functional, cell-based;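 further: cells exposed to compound for about 90 hours before reading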
[5] = biological target: T1, Microphthalmia-associated transcription factor (Homo sapiens, UniProt O75030); assay: reducers of TRPM1 reporter luminescence, concentration series – cell-based, SK-MEL-5, cherry-picked, set 3, MITF inhibitor project, dose response (AID 493073); assay type: functional;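 further: SK-MEL-5 melanoma cells with luciferase driven by the MITF target TRPM1 promoter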
T1 sequence (O75030 whole entry): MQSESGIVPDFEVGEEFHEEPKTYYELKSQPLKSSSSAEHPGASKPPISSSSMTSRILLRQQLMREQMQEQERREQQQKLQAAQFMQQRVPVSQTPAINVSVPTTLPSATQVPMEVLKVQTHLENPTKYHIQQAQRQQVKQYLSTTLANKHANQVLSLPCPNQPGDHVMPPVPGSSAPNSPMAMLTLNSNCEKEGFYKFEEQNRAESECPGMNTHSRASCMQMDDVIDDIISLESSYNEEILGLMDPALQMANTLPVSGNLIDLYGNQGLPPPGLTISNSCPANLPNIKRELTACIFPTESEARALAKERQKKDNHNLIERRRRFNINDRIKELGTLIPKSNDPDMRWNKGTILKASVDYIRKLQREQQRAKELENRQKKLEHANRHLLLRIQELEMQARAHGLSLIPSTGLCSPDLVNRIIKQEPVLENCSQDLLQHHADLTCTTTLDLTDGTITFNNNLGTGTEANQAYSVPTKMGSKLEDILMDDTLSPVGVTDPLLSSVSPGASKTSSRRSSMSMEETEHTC

INS1 = assay: INS-1E survival protection against cytokine death – cell-based, luminescence, retest, dose response (AID 449756); assay type: functional; conditions: Rattus norvegicus;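 further: cell death triggered by IL-1 beta plus TNF-alpha plus IFN-gamma mixture; protective hits raise ATP signal compared with cytokine alone wells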
Genome polyprotein = Genome polyprotein (dengue virus type 2, UniProt P29990); assay: flavivirus cap methylation enzyme inhibition – biochemical, confirmation dose response, primary screen (AID 588689); assay type: functional
Sequence of Genome polyprotein (P29990 2492-3391 limits assumed): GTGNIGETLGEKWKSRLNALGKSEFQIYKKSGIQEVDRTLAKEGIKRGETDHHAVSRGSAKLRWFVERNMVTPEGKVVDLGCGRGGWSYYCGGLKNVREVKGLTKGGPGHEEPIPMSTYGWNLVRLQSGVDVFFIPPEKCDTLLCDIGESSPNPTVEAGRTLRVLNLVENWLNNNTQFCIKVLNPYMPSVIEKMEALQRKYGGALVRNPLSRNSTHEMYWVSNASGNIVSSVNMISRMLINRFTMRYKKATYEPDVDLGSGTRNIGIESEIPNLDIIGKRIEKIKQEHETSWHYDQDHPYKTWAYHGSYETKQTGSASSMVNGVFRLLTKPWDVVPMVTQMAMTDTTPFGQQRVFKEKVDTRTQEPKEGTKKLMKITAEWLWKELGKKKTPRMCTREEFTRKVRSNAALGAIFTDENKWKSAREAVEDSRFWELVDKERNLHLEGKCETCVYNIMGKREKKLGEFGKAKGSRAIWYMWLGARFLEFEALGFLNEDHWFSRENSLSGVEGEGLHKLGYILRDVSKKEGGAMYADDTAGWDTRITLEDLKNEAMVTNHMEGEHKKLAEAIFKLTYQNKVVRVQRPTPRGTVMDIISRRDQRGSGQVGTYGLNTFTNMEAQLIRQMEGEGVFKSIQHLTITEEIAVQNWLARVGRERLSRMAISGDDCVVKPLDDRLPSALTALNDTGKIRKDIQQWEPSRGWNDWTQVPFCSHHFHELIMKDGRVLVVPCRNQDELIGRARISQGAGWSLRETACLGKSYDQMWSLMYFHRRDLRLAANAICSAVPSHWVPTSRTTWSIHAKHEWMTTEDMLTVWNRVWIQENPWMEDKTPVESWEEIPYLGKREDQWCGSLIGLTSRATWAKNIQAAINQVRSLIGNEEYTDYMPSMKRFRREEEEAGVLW

Caspase-3 = biological target: T2, Caspase-3 (Homo sapiens, UniProt P42574); assay type: functional;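 further: Dose-response selectivity test against caspase-3 for candidate inhibitors of sentrin-specific proteases (SENPs)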
T2 sequence (P42574 whole entry): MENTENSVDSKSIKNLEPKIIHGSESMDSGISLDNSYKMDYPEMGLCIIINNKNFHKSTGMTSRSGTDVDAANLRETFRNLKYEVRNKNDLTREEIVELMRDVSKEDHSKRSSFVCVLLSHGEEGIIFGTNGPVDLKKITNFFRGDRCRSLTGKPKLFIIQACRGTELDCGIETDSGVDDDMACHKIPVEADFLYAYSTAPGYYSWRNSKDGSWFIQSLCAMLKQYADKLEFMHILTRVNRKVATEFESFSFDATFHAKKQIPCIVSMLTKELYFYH

[6] = biological target: T3, Sentrin-specific protease 7 (Homo sapiens, UniProt Q9BQF6); assay type: functional;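 further: Luminescence-based dose-response confirmation of ultra-high-throughput screening hits, measuring inhibition of SENP7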
T3 sequence (Q9BQF6 whole entry): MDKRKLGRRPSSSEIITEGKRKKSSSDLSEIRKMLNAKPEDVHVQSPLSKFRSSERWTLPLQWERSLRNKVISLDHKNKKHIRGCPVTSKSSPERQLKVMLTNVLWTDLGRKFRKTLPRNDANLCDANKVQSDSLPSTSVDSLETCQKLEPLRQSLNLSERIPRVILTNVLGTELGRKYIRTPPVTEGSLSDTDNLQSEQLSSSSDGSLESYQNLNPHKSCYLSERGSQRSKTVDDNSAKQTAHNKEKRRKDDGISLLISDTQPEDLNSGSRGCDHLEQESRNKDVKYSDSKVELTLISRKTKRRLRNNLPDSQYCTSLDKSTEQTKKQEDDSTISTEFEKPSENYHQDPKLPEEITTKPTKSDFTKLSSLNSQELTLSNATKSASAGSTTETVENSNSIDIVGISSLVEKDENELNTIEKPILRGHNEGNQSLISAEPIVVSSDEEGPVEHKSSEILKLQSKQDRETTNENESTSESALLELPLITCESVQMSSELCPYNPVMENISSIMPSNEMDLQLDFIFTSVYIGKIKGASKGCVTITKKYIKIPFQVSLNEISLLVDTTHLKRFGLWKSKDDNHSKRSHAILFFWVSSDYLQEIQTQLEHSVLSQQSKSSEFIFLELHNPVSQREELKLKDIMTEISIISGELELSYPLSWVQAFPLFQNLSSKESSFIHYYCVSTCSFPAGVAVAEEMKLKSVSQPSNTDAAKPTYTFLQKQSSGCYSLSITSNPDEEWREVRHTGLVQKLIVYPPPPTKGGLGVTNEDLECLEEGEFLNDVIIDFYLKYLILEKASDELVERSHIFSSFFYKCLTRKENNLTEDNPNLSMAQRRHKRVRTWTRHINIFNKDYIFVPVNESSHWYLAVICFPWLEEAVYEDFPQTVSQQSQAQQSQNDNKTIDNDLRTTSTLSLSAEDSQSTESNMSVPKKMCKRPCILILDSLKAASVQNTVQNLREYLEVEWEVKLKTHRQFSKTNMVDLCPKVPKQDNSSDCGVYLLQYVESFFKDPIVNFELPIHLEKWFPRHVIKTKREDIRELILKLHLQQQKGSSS

[7] = biological target: T4, Sentrin-specific protease 6 (Homo sapiens, UniProt Q9GZR1); assay type: functional;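 further: Luminescence-based dose-response confirmatory assay of SENP6 inhibition, following up an ultra-high-throughput screen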
T4 sequence (Q9GZR1 whole entry): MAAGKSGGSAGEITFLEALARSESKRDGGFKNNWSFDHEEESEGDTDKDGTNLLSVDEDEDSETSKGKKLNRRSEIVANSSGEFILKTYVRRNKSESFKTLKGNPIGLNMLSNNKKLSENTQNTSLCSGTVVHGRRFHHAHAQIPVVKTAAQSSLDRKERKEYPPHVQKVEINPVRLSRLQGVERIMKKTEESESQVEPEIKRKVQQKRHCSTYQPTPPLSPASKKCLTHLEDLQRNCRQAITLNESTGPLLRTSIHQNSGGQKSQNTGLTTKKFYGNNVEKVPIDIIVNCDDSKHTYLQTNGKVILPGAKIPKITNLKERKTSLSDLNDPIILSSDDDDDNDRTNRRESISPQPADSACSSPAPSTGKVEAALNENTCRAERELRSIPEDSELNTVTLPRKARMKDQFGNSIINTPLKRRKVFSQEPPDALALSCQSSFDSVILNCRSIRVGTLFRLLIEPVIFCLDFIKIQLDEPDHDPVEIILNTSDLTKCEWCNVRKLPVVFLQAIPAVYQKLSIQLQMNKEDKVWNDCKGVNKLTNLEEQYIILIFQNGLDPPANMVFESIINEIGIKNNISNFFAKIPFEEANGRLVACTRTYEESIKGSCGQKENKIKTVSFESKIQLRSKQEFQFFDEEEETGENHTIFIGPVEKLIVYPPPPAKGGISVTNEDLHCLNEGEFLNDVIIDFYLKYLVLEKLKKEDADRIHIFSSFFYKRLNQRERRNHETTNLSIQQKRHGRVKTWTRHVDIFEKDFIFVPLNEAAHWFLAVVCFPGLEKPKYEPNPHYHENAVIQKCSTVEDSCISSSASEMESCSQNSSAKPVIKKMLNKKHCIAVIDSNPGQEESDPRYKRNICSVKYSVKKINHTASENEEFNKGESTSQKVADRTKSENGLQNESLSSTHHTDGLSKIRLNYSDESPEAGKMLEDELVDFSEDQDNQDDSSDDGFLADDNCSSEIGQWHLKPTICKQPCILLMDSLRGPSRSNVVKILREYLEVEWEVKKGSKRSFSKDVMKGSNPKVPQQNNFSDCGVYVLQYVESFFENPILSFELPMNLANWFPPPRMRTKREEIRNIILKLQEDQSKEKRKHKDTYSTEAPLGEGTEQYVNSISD

[8] = biological target: T5, Sentrin-specific protease 8 (Homo sapiens, UniProt Q96LD8); assay type: functional;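 further: luminescence read-out of SENP8 inhibition, dose-response confirmation following an ultra-high-throughput screen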
T5 sequence (Q96LD8 whole entry): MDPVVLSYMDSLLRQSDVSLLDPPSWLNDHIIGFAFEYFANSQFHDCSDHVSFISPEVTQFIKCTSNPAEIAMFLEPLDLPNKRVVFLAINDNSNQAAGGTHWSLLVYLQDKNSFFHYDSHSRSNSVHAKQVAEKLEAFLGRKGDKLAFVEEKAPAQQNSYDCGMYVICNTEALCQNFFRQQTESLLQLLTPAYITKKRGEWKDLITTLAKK

[9] = biological target: Eukaryotic translation initiation factor 4E (Mus musculus, UniProt P63073); assay: blockers of eIF4G binding by eIF4E – biochemical, TR-FRET, dose response (AID 855); assay type: functional;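 further: potency for disrupting eIF4E binding to eIF4GI seen as loss of FRET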
Sequence of Eukaryotic translation initiation factor 4E (P63073 whole entry): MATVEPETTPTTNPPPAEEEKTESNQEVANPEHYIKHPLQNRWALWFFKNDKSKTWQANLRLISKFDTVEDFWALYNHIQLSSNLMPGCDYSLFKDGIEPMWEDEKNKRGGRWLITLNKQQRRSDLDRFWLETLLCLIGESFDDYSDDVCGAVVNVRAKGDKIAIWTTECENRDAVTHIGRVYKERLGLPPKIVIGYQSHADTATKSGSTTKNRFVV

Cytochrome P450 1A2 = biological target: T6, Cytochrome P450 1A2 (Homo sapiens, UniProt P05177);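 further: PubChem cytochrome P450 panel assay, CYP1A2 panel member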
T6 sequence (P05177 whole entry): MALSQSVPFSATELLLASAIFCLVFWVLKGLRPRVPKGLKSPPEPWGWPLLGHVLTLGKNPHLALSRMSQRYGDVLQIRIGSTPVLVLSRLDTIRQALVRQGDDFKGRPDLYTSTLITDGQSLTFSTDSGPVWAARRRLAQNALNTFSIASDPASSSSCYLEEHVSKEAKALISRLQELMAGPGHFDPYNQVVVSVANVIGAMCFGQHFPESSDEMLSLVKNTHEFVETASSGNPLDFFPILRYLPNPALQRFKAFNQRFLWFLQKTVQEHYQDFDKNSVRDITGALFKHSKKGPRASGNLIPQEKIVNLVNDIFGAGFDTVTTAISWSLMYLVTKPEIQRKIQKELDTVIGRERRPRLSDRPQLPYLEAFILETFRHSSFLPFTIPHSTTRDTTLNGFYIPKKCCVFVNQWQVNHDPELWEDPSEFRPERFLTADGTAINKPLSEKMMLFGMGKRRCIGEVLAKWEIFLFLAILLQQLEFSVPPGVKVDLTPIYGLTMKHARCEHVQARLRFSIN

[10] = viability of uninfected HEp-2 cells – cell-based, HTS, cytotoxicity control for RSV inhibitor project, dose response (AID 2410); assay type: functional; conditions: human respiratory syncytial virus
[11] = test system: Streptococcus sp. 'group A'; assay: Streptococcus pyogenes SK(-)GAS viability under kanamycin – luminescence, BacTiterGlo, confirmation, counter-screen for streptokinase expression inhibitor project, dose response (AID 1900); assay type: functional, organism-based
Streptokinase A = biological target: T7, Streptokinase A (Streptococcus pyogenes serotype M1, UniProt P10520); assay: viability-normalized secreted streptokinase activity reduction – plasminogen activation absorbance, OD405, dose response (AID 1914); assay type: functional, Streptococcus pyogenes M1 GAS;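 further: secreted streptokinase activity via plasminogen activation per viability signal from cell pellet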
T7 sequence (P10520 whole entry): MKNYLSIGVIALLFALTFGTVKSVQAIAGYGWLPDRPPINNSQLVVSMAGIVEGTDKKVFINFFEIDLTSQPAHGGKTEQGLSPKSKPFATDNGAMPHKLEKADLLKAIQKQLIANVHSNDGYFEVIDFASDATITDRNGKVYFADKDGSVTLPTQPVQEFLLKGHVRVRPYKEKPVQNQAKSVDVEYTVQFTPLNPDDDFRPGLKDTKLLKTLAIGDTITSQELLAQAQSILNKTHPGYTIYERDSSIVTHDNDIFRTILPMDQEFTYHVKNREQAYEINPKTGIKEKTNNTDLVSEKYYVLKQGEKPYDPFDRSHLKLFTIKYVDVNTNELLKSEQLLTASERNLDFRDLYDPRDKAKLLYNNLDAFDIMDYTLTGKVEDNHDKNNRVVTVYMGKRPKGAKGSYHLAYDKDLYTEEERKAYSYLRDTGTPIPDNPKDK

Streptococcus = assay: GAS UMAA2166 growth inhibition – luminescence, BacTiterGlo, counter-screen for streptokinase expression inhibitor project, dose response (AID 1915); assay type: functional, organism-based;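 further: potency for reduction of bacterial viability or growth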
Vero = assay: cells; assay type: functional; conditions: Chlorocebus sabaeus
Cytochrome P450 2D6 = Cytochrome P450 2D6 (Homo sapiens, UniProt P10635);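 further: CYP2D6 member of a cytochrome P450 panel assay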
Sequence of Cytochrome P450 2D6 (P10635 whole entry): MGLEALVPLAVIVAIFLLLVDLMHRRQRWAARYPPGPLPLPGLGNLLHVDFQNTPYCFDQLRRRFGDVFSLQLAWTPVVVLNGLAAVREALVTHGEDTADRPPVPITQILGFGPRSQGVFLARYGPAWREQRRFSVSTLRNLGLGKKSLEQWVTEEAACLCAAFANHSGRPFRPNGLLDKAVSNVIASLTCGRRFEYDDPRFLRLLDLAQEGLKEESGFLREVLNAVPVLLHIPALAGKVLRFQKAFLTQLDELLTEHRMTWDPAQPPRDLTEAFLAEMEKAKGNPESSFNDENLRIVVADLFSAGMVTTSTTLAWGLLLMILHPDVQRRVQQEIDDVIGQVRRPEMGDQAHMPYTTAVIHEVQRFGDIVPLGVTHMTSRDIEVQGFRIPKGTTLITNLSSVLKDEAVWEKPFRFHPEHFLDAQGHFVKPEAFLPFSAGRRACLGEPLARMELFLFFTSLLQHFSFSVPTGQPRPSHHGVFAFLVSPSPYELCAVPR

Sequence of Cytochrome P450 2C9 (P11712 whole entry): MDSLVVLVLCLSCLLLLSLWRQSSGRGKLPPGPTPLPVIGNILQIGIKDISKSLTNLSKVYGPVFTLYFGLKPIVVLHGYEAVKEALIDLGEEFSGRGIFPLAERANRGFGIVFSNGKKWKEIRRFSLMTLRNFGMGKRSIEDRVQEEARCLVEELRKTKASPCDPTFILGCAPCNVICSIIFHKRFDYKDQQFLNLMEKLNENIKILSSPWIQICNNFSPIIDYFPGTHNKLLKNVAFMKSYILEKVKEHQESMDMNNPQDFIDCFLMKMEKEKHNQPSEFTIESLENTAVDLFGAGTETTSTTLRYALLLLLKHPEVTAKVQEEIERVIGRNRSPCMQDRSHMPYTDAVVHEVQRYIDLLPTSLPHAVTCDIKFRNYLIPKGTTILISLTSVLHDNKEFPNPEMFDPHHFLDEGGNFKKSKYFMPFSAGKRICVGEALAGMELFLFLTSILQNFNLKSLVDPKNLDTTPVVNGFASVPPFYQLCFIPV

CCOc1ccc(NC(=O)c2oc3ccccc3c2NC(=O)CC)cc1
AC50 (Cytochrome P450 2C9): inconclusive

CCCOCc1ccc(O)c2ncccc12
EC50 [1]: 16.2 µM (inconclusive) | EC50 [2]: 2.75 µM (active) | EC50 [3]: 2.5 µM (active) | EC50 [4]: 8.03 µM (active) | AC50 [5]: 15.5 µM (active) | AC50 (INS1): 3.29 µM (active)

O=C1NC(=O)N(c2ccc(F)cc2)C(=O)/C1=C/c1ccc(N2CCOCC2)cc1
IC50 (Genome polyprotein): > 100 µM (active)

C[C@@H](Cc1cccc(C(F)(F)F)c1)NCCOC(=O)c1ccccc1
AC50 (Cytochrome P450 2C9): inconclusive

COc1ccc(C(=N)NOC(=O)C2CCCCC2)cc1
IC50 (Caspase-3): 28.4 µM (active) | IC50 [6]: 9.16 µM (active) | IC50 [7]: 29.6 µM (active) | IC50 [8]: 44.1 µM (active)

CC(=O)N(C[C@@H](C)C(=O)O)c1c(I)cc(I)c(N)c1I
AC50 (Cytochrome P450 2C9): inconclusive

Cc1cc2c(cc1S(N)(=O)=O)S(=O)(=O)CCC2
AC50 (Cytochrome P450 2C9): inconclusive

Cc1cccc(-n2cnc(C(=O)NC3CCCCCC3)c2)n1
IC50 [9]: > 64 µM (inactive) | AC50 (Cytochrome P450 1A2): 11.2 µM (inconclusive) | AC50 (Cytochrome P450 2C9): inconclusive

COc1ccc2oc(=O)c(-c3csc(Nc4ccc(O)cc4)n3)cc2c1
CC50 [10]: 38.5 µM (active) | EC50 [11]: 7.11 µM (active) | EC50 (Streptokinase A): > 150 µM (not active) | EC50 (Streptococcus): 13.8 µM (active) | CC50 (Vero): 13.3 µM (active)

O=C(CCN1C(=O)C2C3C=CC(C3)C2C1=O)NCCN1CCCc2ccccc21 (centres undefined)
AC50 (Cytochrome P450 2D6): 22.4 µM (inconclusive) | AC50 (Cytochrome P450 1A2): 10 µM (inconclusive) | AC50 (Cytochrome P450 2C9): inconclusive

CCOC(=O)c1c(C)oc2c1cc(NS(=O)(=O)c1ccc(C(=O)O)cc1)c1ccccc12
IC50 (Genome polyprotein): 73.8 µM (active)

O=[N+]([O-])c1ccc(O)c(/C=N/c2ccc3c(c2)OCO3)c1
IC50 (Genome polyprotein): 41.9 µM (active)

COc1cccc(/C=C2\SC(=S)N(CCC(=O)NC3C=CS(=O)(=O)C3)C2=O)c1 (centres undefined)
CC50 (Vero): 23.8 µM (active)
